Source: patent publication US9375002B2, “5-aminopyrimidine derivatives and use thereof for combating undesired plant growth” (BAYER INTELLECTUAL PROPERTY GMBH, priority 2012, dated 2016)

Legend:
Stellaria media = test: Post-emergence herbicidal effect; assay type: in vivo; details: 1280 g/ha, visual rating after about 3 weeks
Protocol: (§1) STEME: Stellaria media VERPE: Veronica persica 2. Post-Emergence Herbicidal Effect and Crop Plant Compatibility Seeds of monocotyledonous and dicotyledonous weed and crop plants are placed in sandy loam in wood-fiber pots, covered with soil and cultivated in a greenhouse under good growth conditions. 2 to 3 weeks after sowing, the test plants are treated at the one-leaf stage. The compounds according to the invention, formulated in the form of wettable powders (WP) or as emulsion concentrates (EC), are then sprayed as aqueous suspension or emulsion at a water application rate of 600 to 800 I/ha (converted) with the addition of 0.2% of wetting agent onto the green parts of the plants. After the test plants have been kept in the greenhouse under optimum growth conditions for about 3 weeks, the activity of the preparations is rated visually in comparison to untreated controls (herbicidal activity in percent (%): 100% activity=the plants have died, 0% activity=like control plants).

[1] = logp (HCOOH), physicochemical characterization; details: HCOOH
Echinochloa crus-galli = test: Post-emergence herbicidal effect; assay type: in vivo; details: 1280 g/ha, visual rating after about 3 weeks
Protocol: as §1, with “AMARE: Amaranthus retroflexus ECHCG: Echinochloa crus-galli” for “STEME: Stellaria media VERPE: Veronica persica”

Polygonum convolvulus = test: Pre-emergence herbicidal effect; assay type: in vivo; details: 1280 g/ha, visual assessment after 3 weeks
Description: (§2) 1. Pre-Emergence Herbicidal Effect and Crop Plant Compatibility Seeds of monocotyledonous and dicotyledonous weed plants and crop plants are placed in wood-fiber pots in sandy loam and covered with soil. The inventive compounds, formulated in the form of wettable powders (WP) or as emulsion concentrates (EC), are then applied to the surface of the covering soil as an aqueous suspension or emulsion at a water application rate of 600 to 800 I/ha (converted) with addition of 0.2% wetting agent. After the treatment, the pots are placed in a greenhouse and kept under good growth conditions for the test plants. The damage to the test plants is assessed visually after a test period of 3 weeks by comparison with untreated controls (herbicidal activity in percent (%): 100% action=the plants have died, 0% action=like control plants). POLCO: Polygonum convolvulus SETVI: Setaria viridis

Setaria viridis = test: Pre-emergence herbicidal effect; assay type: in vivo; details: 1280 g/ha, visual assessment after 3 weeks
Description: as §2

Viola tricolor = test: Post-emergence herbicidal effect; assay type: in vivo; details: 1280 g/ha, visual rating after about 3 weeks
Protocol: as §1, with “VIOTR: Viola tricolor” for “STEME: Stellaria media VERPE: Veronica persica”

Veronica persica = test: Post-emergence herbicidal effect; assay type: in vivo; details: 1280 g/ha, visual rating after about 3 weeks
Protocol: as §1

Amaranthus retroflexus = test: Post-emergence herbicidal effect; assay type: in vivo; details: 1280 g/ha, visual rating after about 3 weeks
Protocol: as §1, with “AMARE: Amaranthus retroflexus ECHCG: Echinochloa crus-galli” for “STEME: Stellaria media VERPE: Veronica persica”

Compound | herbicidal activity STEME (Stellaria media) [%] | logp (HCOOH) [1] | herbicidal activity ECHCG (Echinochloa crus-galli) [%] | herbicidal activity POLCO (Polygonum convolvulus) [%] | herbicidal activity SETVI (Setaria viridis) [%] | herbicidal activity VIOTR (Viola tricolor) [%] | herbicidal activity VERPE (Veronica persica) [%] | herbicidal activity AMARE (Amaranthus retroflexus) [%]
CCc1ccc2c(c1)C(Nc1cnc(S(C)(=O)=O)nc1)CCO2 (racemic) [compound 65] | 90 | wax-like; logp (HCOOH): 2.54; 1H-NMR (CDCl3, 400 MHZ, δ in ppm): 1.20 (t, 3H, | 100 | 100 | 100 | – | – | –
CCc1ccc2c(c1)C(Nc1cnc(S(C)(=O)=O)nc1C(=O)O)CCO2 (racemic) [compound 68] | – | – | 90 | 100 | 100 | 80 | – | –
Cc1ccc2c(c1)[C@H](Nc1cnc(S(C)(=O)=O)nc1)[C@@H](C)C2 [compound 134] | 100 | – | 90 | 100 | 100 | 90 | 90 | 80
